# Measurements reported in article PMC10041525, “New Dual Inhibitors of Bacterial Topoisomerases with Broad-Spectrum Antibacterial Activity and In Vivo Efficacy against Vancomycin-Intermediate Staphylococcus aureus” (Journal of Medicinal Chemistry, 2023).
# Read-outs that look alike come from different tables or passages of the source.
# Columns and labels:
# [1] = tested on: S. aureus (MRSA) ATCC 43300; test: MIC broth microdilution (CLSI); format: cell-based; conditions: Staphylococcus aureus
# Method: (§1) MICs (Tables 1 and S1–S3) were determined with a standard serial broth microdilution technique according to Clinical and Laboratory Standards Institute (CLSI) guidelines.[45] Cation-adjusted Mueller Hinton broth 2 (MHBII) was used for bacterial growth under standard laboratory conditions and for antimicrobial susceptibility tests. MHBII broth was prepared by dissolving 22 g of MHBII powder [containing beef extract (3 g), acid hydrolysate of casein (17.5 g), and starch (1.5 g); Becton Dickinson and Co.] in 1 L of water. To prepare MHBII agar, 14 g of agar (Bacto; Molar Chemicals) was added to 1 L of broth.
# (§2) Bacterial strains were inoculated onto MHBII agar plates and grown overnight at 37 °C. Next, three individual colonies from each strain were inoculated into 1 mL of MHBII medium and propagated at 37 °C overnight, with agitation at 250 rpm. For Enterococcus sp., the cells were plated in brain–heart infusion [(BHI) medium] agar plates, and BHI broth was used to determine the MICs. […] The highest final DMSO concentration in the experiments was 0.64% (in the case of the 64 μg/mL concentration of the inhibitor). Following the dilutions, each well was seeded with 5 × 10^4 bacterial cells (in 100 μL final volume). Each measurement was performed in three parallel replicates, and to avoid possible edge effects in the microwell plates, the outside rows (A, H) were filled with sterile medium. Following the inoculations, the plates were covered with the lids and wrapped in polyethylene plastic bags, to minimize evaporation but to allow O2 transfer. The plates were incubated at 37 °C under continuous shaking at 150 rpm for 18 h. After incubation, the OD600 of each well was measured using a microplate reader (Synergy 2; Biotek). The MICs were defined as the antibiotic concentrations which inhibited the growth of the bacterial cultures; that is, the drug concentration where the average OD600 increment of the three technical replicates was below 1.5-fold the background OD increment.
# [2] = tested on: Enterobacter cloacae spp. cloacae ATCC 13047; test: MIC broth microdilution (CLSI); format: cell-based
# Method: as §1, §2
# E. faecium ATCC 700221 = test: MIC broth microdilution (CLSI); format: cell-based; conditions: Enterococcus faecium, ATCC700221
# Method: as §1, §2
# [3] = tested on: S. aureus (VISA) ATCC 700699; test: MIC broth microdilution (CLSI); format: cell-based
# Method: as §1, §2
# E. coli ATCC 25922 = test: MIC broth microdilution (CLSI); format: cell-based; conditions: Escherichia coli, ATCC25922
# Method: as §1, §2
# K. pneumoniae ATCC 10031 = test: MIC broth microdilution (CLSI); format: cell-based; conditions: Klebsiella pneumoniae, ATCC10031
# Method: as §1, §2
# P. aeruginosa ATCC 27853 = test: MIC broth microdilution (CLSI); format: cell-based; conditions: Pseudomonas aeruginosa, ATCC27853
# Method: as §1, §2
# [4] = tested on: Enterococcus faecalis ATCC 29212; test: MIC broth microdilution (CLSI); format: cell-based, E. faecalis
# Method: as §1, §2
# in vitro = in vitro ADME, mouse; conditions: male, CD-1, mouse; for fraction unbound at 4 h, 5 μM: plasma (pooled)
# Method: The PPB studies were performed by Selvita d.o.o. (Zagreb, Croatia) in mouse plasma (CD-1 male, pooled, commercially obtained from BioIVT) via equilibrium dialysis. Compounds were assayed at 5 μM (0.5% DMSO) in two replicates, and incubation time was 4 h at 37 °C. Samples were taken at 0 min and 4 h. Aliquots from both buffer and plasma compartment matrix were matched and mixed with 6 volumes of STOP solution (acetonitrile/methanol (2:1) + internal standard – diclofenac) and analyzed by LC–MS/MS. Assay controls were caffeine (low), verapamil (moderate binding), and nicardipine (very high binding), and protein contamination was checked.
# A. baumannii ATCC 17978 = test: MIC broth microdilution (CLSI); format: cell-based; conditions: Acinetobacter baumannii, ATCC17978
# Method: as §1, with “Cation-adjusted” for “MICs (Tables 1 and S1–S3) were determined with a standard serial broth microdilution technique according to Clinical and Laboratory Standards Institute (CLSI) guidelines.[45] Cation-adjusted”
# (§3) Bacterial strains were inoculated onto MHBII agar plates and grown overnight at 37 °C. Next, three individual colonies from each strain were inoculated into 1 mL of MHBII medium and propagated at 37 °C overnight, with agitation at 250 rpm. For Enterococcus sp., the cells were plated in brain–heart infusion [(BHI) medium] agar plates, and BHI broth was used to determine the MICs. […] Following the dilutions, each well was seeded with 5 × 10^4 bacterial cells (in 100 μL final volume). Each measurement was performed in three parallel replicates, and to avoid possible edge effects in the microwell plates, the outside rows (A, H) were filled with sterile medium. Following the inoculations, the plates were covered with the lids and wrapped in polyethylene plastic bags, to minimize evaporation but to allow O2 transfer. […] After incubation, the OD600 of each well was measured using a microplate reader (Synergy 2; Biotek).
# S. aureus ATCC 29213 = test: MIC broth microdilution (CLSI); format: cell-based; conditions: Staphylococcus aureus, ATCC29213
# Method: as §1, with “Cation-adjusted” for “MICs (Tables 1 and S1–S3) were determined with a standard serial broth microdilution technique according to Clinical and Laboratory Standards Institute (CLSI) guidelines.[45] Cation-adjusted”
# as §3
# [5] = mitochondrial toxicity glu/gal assay; format: cell-based; conditions: human, 0.1 µM, read-out: cell viability (ATP), % of control
# Method: HepG2 cells were seeded in two 96-well plates at a density of 50,000 cells per well in 100 μL of growth medium. For the first plate, the growth medium contained glucose and for the second plate, it contained galactose. Cells were incubated overnight in a 5% CO2 atmosphere at 37 °C and allowed to attach onto the wells. […] The medium contained positive control (Rotenone). […] Luminescence was measured with Tecan Infinite 200 pro luminometer, and the values from each well treated with compound were compared to the values given by the negative control (medium only). The inhibition of mitochondrial function was determined by comparing ATP levels in galactose and glucose exposed cells. […]
# topo IV from E. coli = molecular target: T1, topo IV from E. coli (Escherichia coli, UniProt P20083); test: relaxation HTS plate assay; format: biochemical
# T1 construct: purchased Inspiralis
# Method: (§4) All compounds were tested for their inhibitory activities against DNA gyrase and topo IV from E. coli in supercoiling and relaxation high-throughput plate assays, respectively. Our new series of inhibitors were then tested against a panel of Gram-positive and Gram-negative bacteria.
# (§5) Seven concentrations of the inhibitors were used to determine IC50 values which were then calculated with GraphPad Prism 6.0 software. Three independent measurements were performed to determine IC50 values, and mean values are reported as the final result.
# DNA gyrase from E. coli = molecular target: T2, DNA gyrase from E. coli (Escherichia coli, UniProt P0AES6); test: supercoiling HTS plate assay; format: biochemical; conditions: IC50 [nM] E. coli DNA gyrase
# T2 construct: purchased Inspiralis
# Method: as §4, §5
# P. aeruginosa PAO1 = test: MIC broth microdilution (CLSI); format: cell-based; conditions: Pseudomonas aeruginosa; PAO1 used for 7l, 8b, 14, 16b, 16c
# Method: as §1, §2
# (§6) cMIC, minimum inhibitory concentration
# (§7) Bacterial strains that were used: S. aureus ATCC 29213, S. aureus (MRSA) ATCC 43300, S. aureus (VISA) ATCC 700699, E. faecalis ATCC 29212, E. faecium ATCC 700221,
# (§8) E. coli ATCC 25922, P. aeruginosa ATCC 27853 (PAO1 for compounds 7l, 8b, 14), A. baumannii ATCC 17978 (ATCC 19606 for compounds 7l, 8b, 14), K. pneumoniae ATCC
# (§9) Measurements were performed according to the Clinical and Laboratory Standards Institute guidelines, with three independent measurements.
# A. baumannii ATCC 19606 = test: MIC broth microdilution (CLSI); format: cell-based; conditions: Acinetobacter baumannii, ATCC19606
# Method: as §1, §2, §6, §7, §8, §9
# K. pneumoniae ATCC 13883 = test: MIC broth microdilution (CLSI); format: cell-based; conditions: Klebsiella pneumoniae, ATCC13883; ATCC 13883 used for 7l, 8b, 14, 16b, 16c
# Method: as §1, §2, §6, §7, §8, §9
# [6] = ATCC 19606 used for 7l, 8b, 14, 16b, 16c, read-out: MIC
# [7] = read-out: MIC [µg/mL] (A. baumannii ATCC 19606 for compounds 7l, 8b, 14)
# [8] = read-out: MIC [µg/mL](S. aureus ATCC 29213)
# T1 sequence (P0AFI2 whole entry): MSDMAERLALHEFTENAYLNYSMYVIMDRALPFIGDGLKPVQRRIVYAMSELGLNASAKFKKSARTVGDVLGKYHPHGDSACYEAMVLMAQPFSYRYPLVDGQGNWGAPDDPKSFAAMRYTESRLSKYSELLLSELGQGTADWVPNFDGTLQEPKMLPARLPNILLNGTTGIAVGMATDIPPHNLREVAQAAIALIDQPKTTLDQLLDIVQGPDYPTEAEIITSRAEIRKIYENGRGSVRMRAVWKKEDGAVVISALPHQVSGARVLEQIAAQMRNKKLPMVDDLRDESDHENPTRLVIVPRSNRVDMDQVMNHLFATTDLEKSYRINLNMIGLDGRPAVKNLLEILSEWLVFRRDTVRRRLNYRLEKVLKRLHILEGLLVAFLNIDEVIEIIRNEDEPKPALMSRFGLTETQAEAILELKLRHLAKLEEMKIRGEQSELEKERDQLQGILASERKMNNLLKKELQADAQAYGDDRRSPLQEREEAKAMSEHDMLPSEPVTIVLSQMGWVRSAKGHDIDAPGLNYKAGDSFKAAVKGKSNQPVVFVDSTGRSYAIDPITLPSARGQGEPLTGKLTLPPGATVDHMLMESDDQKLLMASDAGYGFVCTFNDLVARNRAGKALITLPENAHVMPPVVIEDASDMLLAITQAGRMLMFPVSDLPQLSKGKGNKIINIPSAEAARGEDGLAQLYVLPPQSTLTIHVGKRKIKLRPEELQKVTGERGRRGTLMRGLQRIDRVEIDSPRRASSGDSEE
# T1 sequence (P20083 whole entry): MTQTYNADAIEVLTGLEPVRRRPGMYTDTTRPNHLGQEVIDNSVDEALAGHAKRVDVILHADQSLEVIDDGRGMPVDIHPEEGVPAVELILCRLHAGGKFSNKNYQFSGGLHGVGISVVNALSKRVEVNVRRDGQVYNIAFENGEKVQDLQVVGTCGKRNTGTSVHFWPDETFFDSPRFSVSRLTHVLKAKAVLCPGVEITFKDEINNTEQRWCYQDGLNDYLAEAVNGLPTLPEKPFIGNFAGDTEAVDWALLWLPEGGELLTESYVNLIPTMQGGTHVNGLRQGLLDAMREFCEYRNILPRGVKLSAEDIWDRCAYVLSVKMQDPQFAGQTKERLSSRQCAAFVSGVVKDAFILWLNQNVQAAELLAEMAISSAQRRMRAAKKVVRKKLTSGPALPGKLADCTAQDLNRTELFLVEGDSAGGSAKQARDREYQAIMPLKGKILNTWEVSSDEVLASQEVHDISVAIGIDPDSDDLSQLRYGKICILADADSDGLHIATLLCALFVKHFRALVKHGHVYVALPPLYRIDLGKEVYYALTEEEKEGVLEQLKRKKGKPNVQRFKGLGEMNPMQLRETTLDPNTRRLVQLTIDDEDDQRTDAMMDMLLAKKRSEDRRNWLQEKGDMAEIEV
SMILES,IC50 (topo IV from E. coli; IC50 [nM] E. coli TopoIV),MIC (E. coli ATCC 25922; read-out: MIC),IC50 (DNA gyrase from E. coli),MIC (P. aeruginosa PAO1),MIC (A. baumannii ATCC 19606; [6]),MIC (A. baumannii ATCC 19606; [7]),MIC (K. pneumoniae ATCC 13883),MIC (S. aureus ATCC 29213; read-out: MIC),MIC (S. aureus ATCC 29213; [8]),also measured
Cc1[nH]c(C(=O)Nc2nc3c(OCc4ccccc4)cc(C(=O)O)cc3s2)c(Cl)c1Cl [E],,,,,,,,,,"MIC [1]: 0.0625 µg/mL; MIC [2]: >64 µg/mL; MIC ([2]; Enterobacter cloacae, ATCC13047): > 64 µg/mL; MIC (E. faecium ATCC 700221): 0.0625 µg/mL; MIC [3]: <0.03125 µg/mL; MIC ([3]; Staphylococcus aureus): < 0.0312 µg/mL; MIC (E. coli ATCC 25922): 16 µg/mL; MIC (K. pneumoniae ATCC 10031): 4 µg/mL; MIC (P. aeruginosa ATCC 27853): 2 µg/mL; MIC [4]: <0.03125 µg/mL; MIC ([4]; Enterococcus faecalis, ATCC29212): < 0.0312 µg/mL; fraction unbound at 4 h, 5 μM (in vitro; mouse plasma, 5 µM, 4 h, read-out: fu, fraction unbound): < 0.001; fraction unbound at 4 h, 5 μM (in vitro; read-out: plasma protein binding (PPB)): < 0.01; recovery at 4 h, 5 μM (in vitro; plasma protein binding assay): 94.1%; MIC (A. baumannii ATCC 17978): 2 µg/mL; MIC (S. aureus ATCC 29213): 0.5 µg/mL"
"C=C(C)[C@H]1Cc2c(ccc3c2O[C@@H]2COc4cc(OC)c(OC)cc4[C@@H]2C3=O)O1 [Rot, Rotenone]",,,,,,,,,,"viability at 24 h, 0.1 µM ([5]; galactose): 1%; viability at 24 h, 0.1 µM ([5]; glucose): 64%"
"Cc1[nH]c(C(=O)Nc2nc3c(N4CCNCC4)cc(C(=O)O)cc3s2)c(Cl)c1Cl.Cl [8b, 4-(6-Carboxy-2-(3,4-dichloro-5-methyl-1H-pyrrole-2-carboxamido)benzo[d]thiazol-4-yl)piperazin-1-ium Chloride]",120 ± 15 nM,16 µg/mL,< 10 nM,> 64 µg/mL,64 µg/mL,64 µg/mL,64 µg/mL,32 µg/mL,32 µg/mL,
"Cc1[nH]c(C(=O)Nc2nc3c(N4CCOCC4)cc(C(=O)O)cc3s2)cc1C#N [16c, 2-(4-Cyano-5-methyl-1H-pyrrole-2-carboxamido)-4-morpholinobenzo[d]thiazole-6-carboxylic Acid]",,> 64 µg/mL,32 ± 9 nM,> 64 µg/mL,> 64 µg/mL,,> 64 µg/mL,> 64 µg/mL,> 64 µg/mL,IC50 (topo IV from E. coli; read-out: IC50): 440 nM; MIC (A. baumannii ATCC 17978; read-out: MIC [µg/mL] (A. baumannii ATCC 17978)): > 64 µg/mL
"Cc1[nH]c(C(=O)Nc2nc3c(N4CC[C@H](N(C)C)C4)cc(C(=O)O)cc3s2)c(Cl)c1Cl.Cl.N [7l, (S)-2-(3,4-Dichloro-5-methyl-1H-pyrrole-2-carboxamido)-4-(3-(dimethylamino)pyrrolidin-1-yl)benzo[d]thiazole-6-carboxylic Acid]",210 ± 80 nM,> 64 µg/mL,< 10 nM,> 64 µg/mL,> 64 µg/mL,> 64 µg/mL,> 64 µg/mL,4 µg/mL,4 µg/mL,"MIC ([1]; read-out: MIC): 2 µg/mL; MIC ([1]; read-out: MIC [µg/mL](S. aureus MRSA ATCC4330)): 2 µg/mL; MIC (E. faecium ATCC 700221; read-out: MIC): 0.25 µg/mL; MIC ([3]; Staphylococcus aureus, read-out: MIC): 0.5 µg/mL; MIC ([4]; Enterococcus faecalis, ATCC29212, read-out: MIC): 1 µg/mL"
"Cc1[nH]c(C(=O)Nc2nc3c(CN4CCOCC4)cc(C(=O)O)cc3s2)c(Cl)c1Cl.Cl [compound 14, 4-((6-Carboxy-2-(3,4-dichloro-5-methyl-1H-pyrrole-2-carboxamido)benzo[d]thiazol-4-yl)methyl)morpholin-4-ium Chloride]",460 ± 120 nM,> 64 µg/mL,13 ± 5 nM,> 64 µg/mL,> 64 µg/mL,> 64 µg/mL,64 µg/mL,16 µg/mL,16 µg/mL,
